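Five compound concentrations were applied to cells in 96-well plates for 48 hours; endpoints were derived by simple linear interpolation of the resulting dose-response curve. Abbreviation: GI50, concentration required for 50% inhibition of growth.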 Calls of active or inactive are those of the source. Rule as the data show it: active = GI50 up to about 1.1 µM and inactive = higher.
Key:
Test in all cases: NCI anticancer screen, dose series, 48 h
786-0 = test system: 786-0
A498 = test system: A498
A549 = test system: A549
ACHN = test system: ACHN
BT-549 = test system: BT-549
CAKI-1 = test system: CAKI-1
CCRF-CEM = test system: CCRF-CEM
COLO 205 = test system: COLO 205
DU-145 = test system: DU-145
EKVX = test system: EKVX
HCC 2998 = test system: HCC 2998
HCT-116 = test system: HCT-116
HCT-15 = test system: HCT-15
HL-60 = test system: HL-60
HOP-62 = test system: HOP-62
HOP-92 = test system: HOP-92
HT-29 = test system: HT-29
Hs-578T = test system: Hs-578T
IGROV-1 = test system: IGROV-1
K562 = test system: K562
KM12 = test system: KM12
LOX IMVI = test system: LOX IMVI
M14 = test system: M14
MCF7 = test system: MCF7
MDA-MB-231 = test system: MDA-MB-231
MDA-MB-435 = test system: MDA-MB-435
MDA-N = test system: MDA-N
MOLT-4 = test system: MOLT-4
Malme-3M = test system: Malme-3M
NCI-H226 = test system: NCI-H226
NCI-H23 = test system: NCI-H23
NCI-H460 = test system: NCI-H460
NCI-H522 = test system: NCI-H522
NCI/ADR-RES = test system: NCI/ADR-RES
OVCAR-3 = test system: OVCAR-3
OVCAR-4 = test system: OVCAR-4
OVCAR-5 = test system: OVCAR-5
OVCAR-8 = test system: OVCAR-8
PC-3 = test system: PC-3
RPMI-8226 = test system: RPMI-8226
RXF 393 = test system: RXF 393
SF-268 = test system: SF-268
SF-295 = test system: SF-295
SF-539 = test system: SF-539
SK-MEL-28 = test system: SK-MEL-28
SK-MEL-2 = test system: SK-MEL-2
SK-MEL-5 = test system: SK-MEL-5
SK-OV-3 = test system: SK-OV-3
SN12C = test system: SN12C
SNB-19 = test system: SNB-19
SNB-75 = test system: SNB-75
SR = test system: SR
SW-620 = test system: SW-620
T47D = test system: T47D
TK-10 = test system: TK-10
U-251 = test system: U-251
UACC-257 = test system: UACC-257
UACC-62 = test system: UACC-62
UO-31 = test system: UO-31

OC(c1cc(-c2ccccc2)nc2c1ccc1ccccc12)C1CCCCN1 (stereo not drawn)
GI50 (786-0): 1.64 µM (inactive)
GI50 (A498): 1.92 µM (inactive)
GI50 (A549): 1.85 µM (inactive)
GI50 (ACHN): 1.83 µM (inactive)
GI50 (BT-549): 3.97 µM (inactive)
GI50 (CAKI-1): 1.91 µM (inactive)
GI50 (CCRF-CEM): 0.0473 µM (active)
GI50 (COLO 205): 1.95 µM (inactive)
GI50 (DU-145): 2.02 µM (inactive)
GI50 (EKVX): 1.93 µM (inactive)
GI50 (HCC 2998): 0.59 µM (active)
GI50 (HCT-116): 1.63 µM (inactive)
GI50 (HCT-15): 2.12 µM
GI50 (HL-60): 0.855 µM (active)
GI50 (HOP-62): 1.67 µM (inactive)
GI50 (HOP-92): 1.62 µM (inactive)
GI50 (HT-29): 1.68 µM (inactive)
GI50 (Hs-578T): 1.51 µM (inactive)
GI50 (IGROV-1): 1.68 µM (inactive)
GI50 (K562): 2.54 µM (inactive)
GI50 (KM12): 1.86 µM (inactive)
GI50 (LOX IMVI): 1.11 µM (active)
GI50 (M14): 1.73 µM (inactive)
GI50 (MCF7): 1.87 µM (inactive)
GI50 (MDA-MB-231): 1.79 µM (inactive)
GI50 (MDA-MB-435): 1.83 µM (inactive)
GI50 (MDA-N): 1.64 µM (inactive)
GI50 (MOLT-4): 2.18 µM (inactive)
GI50 (Malme-3M): 1.38 µM (inactive)
GI50 (NCI-H226): 2.95 µM (inactive)
GI50 (NCI-H23): 1.95 µM (inactive)
GI50 (NCI-H460): 1.79 µM (inactive)
GI50 (NCI-H522): 1.58 µM (inactive)
GI50 (NCI/ADR-RES): 2.1 µM (inactive)
GI50 (OVCAR-3): 1.84 µM (inactive)
GI50 (OVCAR-4): 1.96 µM (inactive)
GI50 (OVCAR-5): 1.6 µM (inactive)
GI50 (OVCAR-8): 1.96 µM (inactive)
GI50 (PC-3): 1.71 µM (inactive)
GI50 (RPMI-8226): 1.12 µM (active)
GI50 (RXF 393): 1.81 µM (inactive)
GI50 (SF-268): 1.43 µM (inactive)
GI50 (SF-295): 1.97 µM (inactive)
GI50 (SF-539): 1.92 µM (inactive)
GI50 (SK-MEL-28): 1.81 µM (inactive)
GI50 (SK-MEL-2): 1.79 µM (inactive)
GI50 (SK-MEL-5): 2.8 µM (inactive)
GI50 (SK-OV-3): 1.88 µM (inactive)
GI50 (SN12C): 1.62 µM (inactive)
GI50 (SNB-19): 1.82 µM (inactive)
GI50 (SNB-75): 1.98 µM (inactive)
GI50 (SR): 1.18 µM (inactive)
GI50 (SW-620): 1.78 µM (inactive)
GI50 (T47D): 1.93 µM (inactive)
GI50 (TK-10): 1.75 µM (inactive)
GI50 (U-251): 1.76 µM (inactive)
GI50 (UACC-257): 1.82 µM (inactive)
GI50 (UACC-62): 1.85 µM (inactive)
GI50 (UO-31): 1.02 µM (active)

CC(C)CC(=O)OC[n+]1ccc(-c2c(COC(=O)NC(C)C)c(COC(=O)NC(C)C)c3n2CCC3)cc1
GI50 (786-0): > 100 µM (inactive)
GI50 (A498): 84.3 µM (inactive)
GI50 (A549): > 100 µM (inactive)
GI50 (ACHN): 38.3 µM (inactive)
GI50 (BT-549): > 100 µM (inactive)
GI50 (CAKI-1): 45.2 µM (inactive)
GI50 (CCRF-CEM): 64.4 µM (inactive)
GI50 (COLO 205): > 100 µM (inactive)
GI50 (DU-145): > 100 µM (inactive)
GI50 (EKVX): > 100 µM (inactive)
GI50 (HCC 2998): > 100 µM (inactive)
GI50 (HCT-116): > 100 µM (inactive)
GI50 (HCT-15): > 100 µM
GI50 (HL-60): 65.8 µM (inactive)
GI50 (HOP-62): > 100 µM (inactive)
GI50 (HOP-92): > 100 µM (inactive)
GI50 (HT-29): > 100 µM (inactive)
GI50 (Hs-578T): > 100 µM (inactive)
GI50 (IGROV-1): > 100 µM (inactive)
GI50 (K562): > 100 µM (inactive)
GI50 (KM12): > 100 µM (inactive)
GI50 (LOX IMVI): > 100 µM (inactive)
GI50 (M14): > 100 µM (inactive)
GI50 (MCF7): 76.4 µM (inactive)
GI50 (MDA-MB-231): > 100 µM (inactive)
GI50 (MDA-MB-435): > 100 µM (inactive)
GI50 (MDA-N): > 100 µM (inactive)
GI50 (MOLT-4): 32.3 µM (inactive)
GI50 (Malme-3M): > 100 µM (inactive)
GI50 (NCI-H226): > 100 µM (inactive)
GI50 (NCI-H23): 75.2 µM (inactive)
GI50 (NCI-H460): 76.9 µM (inactive)
GI50 (NCI-H522): > 100 µM (inactive)
GI50 (NCI/ADR-RES): > 100 µM (inactive)
GI50 (OVCAR-3): > 100 µM (inactive)
GI50 (OVCAR-4): > 100 µM (inactive)
GI50 (OVCAR-5): > 100 µM (inactive)
GI50 (OVCAR-8): > 100 µM (inactive)
GI50 (PC-3): > 100 µM (inactive)
GI50 (RPMI-8226): > 100 µM (inactive)
GI50 (RXF 393): > 100 µM (inactive)
GI50 (SF-268): > 100 µM (inactive)
GI50 (SF-295): > 100 µM (inactive)
GI50 (SF-539): 27.6 µM (inactive)
GI50 (SK-MEL-28): > 100 µM (inactive)
GI50 (SK-MEL-2): > 100 µM (inactive)
GI50 (SK-MEL-5): > 100 µM (inactive)
GI50 (SK-OV-3): > 100 µM (inactive)
GI50 (SN12C): > 100 µM (inactive)
GI50 (SNB-19): > 100 µM (inactive)
GI50 (SNB-75): > 100 µM (inactive)
GI50 (SR): 6.19 µM (inactive)
GI50 (SW-620): > 100 µM (inactive)
GI50 (T47D): > 100 µM (inactive)
GI50 (TK-10): > 100 µM (inactive)
GI50 (U-251): > 100 µM (inactive)
GI50 (UACC-257): > 100 µM (inactive)
GI50 (UACC-62): 83.8 µM (inactive)
GI50 (UO-31): > 100 µM (inactive)

— ChEMBL document CHEMBL1201862, “PubChem BioAssay data set” (2004)
